According to patent publication US9068971B2, “Methods for treating and/or limiting development of diabetes” (BioCrine AB, priority 2012, dated 2015):
Entries after “also recorded” stand apart in the source; their conditions may differ.

Key:
β cell CaV channels [1] = test: Perforated whole-cell patch-clamp of Ca2+ currents in RINm5F cells; format: cell-based, rat; details: for effect on ApoCIII-induced hyperactivation of β cell CaV channels (enhancement of whole-cell Ca2+ currents): ApoCIII 20 μg/ml overnight with inhibitor cotreatment or after siRNA pretransfection; for whole-cell Ca2+ current density under basal conditions, inhibitor(s) versus vehicle: in the absence of ApoCIII; for whole-cell Ca2+ current density, ApoCIII alone compared with ApoCIII plus inhibitor(s): ApoCIII 20 μg/ml
Method: (§1) Islets of Langerhans were isolated from adult male and female mice and dispersed into single β cells. RINm5F cells at about 70% confluency were trypsinized. The resultant suspension of cells was seeded into Petri dishes or 12-well plates. The cells were cultivated in RPMI 1640 medium supplemented with 10% fetal bovine serum, 2 mM L-glutamine, and 100 U/100 μg/ml penicillin/streptomycin (Invitrogen, Carlsbad, Calif.) and maintained at 37° C. in a humidified 5% CO2 incubator. They were grown overnight and then subjected to siRNA transfection. For patch-clamp analysis, cells underwent overnight treatment with ApoCIII, the PKA inhibitor H-89 (Calbiochem, La Jolla, Calif.), the PKC inhibitor calphostin C (Calbiochem), the Src kinase inhibitor PP2 (Calbiochem) and the CaV1 channel blocker nimodipine (Calbiochem) in RPMI medium at final concentrations of 20 μg/ml, 0.5 μM, 0.1 μM, 0.1 μM and 5 μM, respectively. ApoCIII was dissolved in 0.1% triflouroacetic acid (TFA) to make a stock solution of 1 mg/ml, whereas H-89, calphostin C, PP2 and nimodipine were dissolved in dimethyl sulfoxide (DMSO) to form stock solutions of 5 mM, 1 mM, 1 mM and 10 mM, respectively. 0.002% TFA and/or 0.03% DMSO were used as vehicle controls.
Two pairs of 21-mer siRNA duplexes targeting the rat β1 integrin (β1 integrin siRNA #1, ID127971 and (31 integrin siRNA #2, ID127972) and SRBI (ID128929) were designed and chemically synthesized by Applied Biosystems/Ambion (Austin, Tex.). Their sequences were subjected to BLAST search to ensure their specificity. Silencer® Select Negative Control siRNA (4390843), not targeting any gene product, and Silencer® Select GAPDH Positive Control siRNA (4390849), efficiently silencing GAPDH in human, mouse, and rat cells, were purchased from Applied Biosystems/Ambion (Austin, Tex.). RINm5F cells were reversely transfected with Lipofectamine™ RNAiMAX. Briefly, negative control siRNA, β1 integrin siRNA #1, β1 integrin siRNA #2 or SRBI siRNA was mixed with Lipofectamine™ RNAiMAX followed by 20-min incubation at room temperature. Subsequently, cells were added to the siRNA/Lipofectamine™ RNAiMAX mixtures followed by gentle agitation and kept at 37° C. in a humidified 5% CO2 incubator. After 72 h, the transfected cells were grown to about 70% confluency and subjected to immunoblot assay or different treatments.
(§2) Mouse islet cells and RINm5F cells following different treatments were subjected to single channel and whole-cell patch-clamp measurements. Cell-attached and perforated whole-cell patch-clamp configurations were employed. Electrodes were made from borosilicate glass capillaries, fire-polished and coated with Sylgard close to their tips. Some of them were filled with a solution containing (in mM) 110 BaCl2, 10 TEA-Cl, and 5 HEPES (pH 7.4 with Ba(OH)2) for single channel measurements. Others were filled with a solution composed of (in mM) 76 Cs2SO4, 1 MgCl2, 10 KCl, 10 NaCl, and 5 HEPES (pH 7.35 with CsOH), as well as amphotericin B (0.24 mg/ml) for whole-cell current recordings. Electrode resistance ranged between 4 and 6 MΩ when they were filled with electrode solutions and immersed in bath solutions. The electrode offset potential was corrected in bath solutions prior to gigaseal formation. Single-channel recordings were performed with cells bathed in a depolarizing external recording solution, containing (in mM) 125 KCl, 30 KOH, 10 EGTA, 2 CaCl2, 1 MgCl2, and 5 HEPES-KOH (pH 7.15). This solution was used to bring the intracellular potential to 0 mV. For perforated whole-cell current measurements, the cells were bathed in a solution containing (in mM) 138 NaCl, 5.6 KCl, 1.2 MgCl2, 10 CaCl2, 5 HEPES (pH 7.4). Single channel and whole-cell currents were recorded with an Axopatch 200B amplifier (Molecular Devices, Foster City, Calif.) and an EPC-9 patch clamp amplifier (HEKA Elektronik, Lambrecht/Pfalz, Germany), respectively, at room temperature (about 22° C.). […]

SRBI [2] = target: T1, SRBI (Homo sapiens, UniProt Q8WTV0); details: cited from earlier work
T1 sequence (Q8WTV0 1-509 isoform Q8WTV0-2): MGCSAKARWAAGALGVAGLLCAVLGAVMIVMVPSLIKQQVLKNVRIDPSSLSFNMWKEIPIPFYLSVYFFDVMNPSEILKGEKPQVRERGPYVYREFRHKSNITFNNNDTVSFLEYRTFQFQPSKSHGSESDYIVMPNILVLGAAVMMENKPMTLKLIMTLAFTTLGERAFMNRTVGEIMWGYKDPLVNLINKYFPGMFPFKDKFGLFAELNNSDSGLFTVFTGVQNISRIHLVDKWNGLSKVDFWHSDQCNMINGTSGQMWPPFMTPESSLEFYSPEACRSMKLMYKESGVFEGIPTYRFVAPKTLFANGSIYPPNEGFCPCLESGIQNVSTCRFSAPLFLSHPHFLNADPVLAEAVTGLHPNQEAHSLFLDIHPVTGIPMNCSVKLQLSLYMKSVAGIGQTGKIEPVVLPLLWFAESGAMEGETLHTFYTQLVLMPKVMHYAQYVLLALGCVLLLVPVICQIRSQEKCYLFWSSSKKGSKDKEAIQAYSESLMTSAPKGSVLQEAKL

CaV1 channels [3] = test: Cell-attached single channel patch-clamp of unitary CaV1 channel currents in mouse islet β cells; format: cell-based; details: ApoCIII 20 μg/ml overnight versus control vehicle
Method: as §1
as §2, with “For perforated whole-cell current measurements, the cells were bathed in a solution containing (in mM) 138 NaCl, 5.6 KCl, 1.2 MgCl2, 10 CaCl2, 5 HEPES (pH 7.4).” left out
(§3) All data are presented as mean±SEM. Statistical significance was determined by one-way ANOVA, followed by least significant difference (LSD) test. […]

CaV1 channels [4] = test: Cell-attached single channel patch-clamp of unitary CaV1 channel currents in RINm5F cells; format: cell-based, rat; details: ApoCIII 20 μg/ml overnight versus vehicle solution
Method: as §1
as §2, with “For perforated whole-cell current measurements, the cells were bathed in a solution containing (in mM) 138 NaCl, 5.6 KCl, 1.2 MgCl2, 10 CaCl2, 5 HEPES (pH 7.4).” left out
as §3

CaV1.2 = test: Immunoblot of CaV1.2 subunits in RINm5F cell homogenates; format: cell-based, rat; details: overnight ApoCIII
Method: (§4) Islets of Langerhans were isolated from adult male and female mice and dispersed into single β cells. RINm5F cells at about 70% confluency were trypsinized. The resultant suspension of cells was seeded into Petri dishes or 12-well plates. The cells were cultivated in RPMI 1640 medium supplemented with 10% fetal bovine serum, 2 mM L-glutamine, and 100 U/100 μg/ml penicillin/streptomycin (Invitrogen, Carlsbad, Calif.) and maintained at 37° C. in a humidified 5% CO2 incubator. They were grown overnight and then subjected to siRNA transfection. […]
(§5) RINm5F cells following different treatments were lysed in a lysis buffer (pH 7.5) consisting of 50 mM HEPES, 150 mM NaCl, 1 mM EGTA, 1 mM EDTA, 10% glycerol, 1% triton X-100, 1 mM PMSF and a protease inhibitor cocktail (Roche Diagnostics, Mannheim, Germany). […] The protein concentration of the resulting samples was determined with Bio-Rad protein assay reagent (Bio-Rad, Hercules, Calif.). […]
as §3

CaV1.3 = test: Immunoblot of CaV1.3 subunits in RINm5F cell homogenates; format: cell-based, rat; details: overnight ApoCIII
Method: as §4, §5, §3

β cell CaV channels [5] = details: mouse islet β cell; previous work; cited from earlier work
SRBI [6] = details: cited from earlier work
[7] = overnight, H-89 0.5 μM, calphostin C 0.1 μM, PP2 0.1 μM

**Q.** What does the source list for `O=S(=O)(NCCNC/C=C/c1ccc(Br)cc1)c1cccc2cnccc12` [H-89]?
**A.** effect on ApoCIII-induced hyperactivation of β cell CaV channels (enhancement of whole-cell Ca2+ currents) (β cell CaV channels [1]): marginally reduced; whole-cell Ca2+ current density under basal conditions, inhibitor(s) versus vehicle (β cell CaV channels [1]): did not significantly influence; whole-cell Ca2+ current density, ApoCIII alone compared with ApoCIII plus inhibitor(s) (β cell CaV channels [1]; [7]): did not significantly differ; whole-cell Ca2+ current density, ApoCIII plus inhibitor(s) compared with control cells (β cell CaV channels [1]; overnight, nimodipine 5 μM (control = Nim alone), H-89 0.5 μM, calphostin C 0.1 μM, PP2 0.1 μM): did not significantly differ

**Q.** Which “effect on ApoCIII-induced hyperactivation of β cell CaV channels (enhancement of whole-cell Ca2+ currents)” value (β cell CaV channels [1]) does the source give for `CC(C)(C)n1nc(-c2ccc(Cl)cc2)c2c(N)ncnc21` [PP2] here?
**A.** tendency to decrease

**Q.** What about the “whole-cell Ca2+ current density under basal conditions, inhibitor(s) versus vehicle” value (β cell CaV channels [1]) of the same molecule?
**A.** similar

**Q.** What about the “whole-cell Ca2+ currents, ApoCIII and PP2 cotreatment versus vehicle-treated control cells” value (β cell CaV channels [1]; voltage range 20-40 mV) of the same molecule?
**A.** significantly larger

**Q.** Which SRBI receptor activity (SRBI [2]) does the source give for `CC(C)(C)OC(=O)N1CCN(c2ccc(NC(=O)c3cc([N+](=O)[O-])ccc3Cl)cc2)CC1` [R-138329, N-[4-(4-tert-Butoxycarbonylpiperazin-1-yl)phenyl]-(2-chloro-5-nitrophenyl)carboxamide] here?
**A.** block

**Q.** Which “mean closed time of unitary CaV1 channels” value (CaV1 channels [3]) does the source give for “ApoCIII: protein comprising the amino acid sequence shown in SEQ ID NO:2 (Human), SEQ ID NO:4 (Rat) or SEQ ID NO:6 (Macaque)” here?
**A.** significantly shorter

**Q.** And the “mean open time of unitary CaV1 channels” value (CaV1 channels [3])?
**A.** significantly greater

**Q.** And the “open probability of unitary CaV1 channels” value (CaV1 channels [3])?
**A.** significantly greater

**Q.** What about the “average number of unitary CaV1 channels” value (CaV1 channels [3]; plasma membrane patches) of the same molecule?
**A.** significantly greater

**Q.** And the “channel number of CaV1 channels” value (CaV1 channels [4])?
**A.** significantly increased

**Q.** What about the “mean closed time of CaV1 channels” value (CaV1 channels [4]) of the same molecule?
**A.** shortened

**Q.** And the “mean open time of CaV1 channels” value (CaV1 channels [4])?
**A.** prolonged

**Q.** And the “open probability of CaV1 channels” value (CaV1 channels [4])?
**A.** elevated

**Q.** What about the “whole-cell Ca2+ current density, ApoCIII group versus control group” value (β cell CaV channels [1]; no voltage range printed (FIG. 4d)) of the same molecule?
**A.** Significantly higher

**Q.** And the “whole-cell Ca2+ current density, ApoCIII-treated versus vehicle-treated control cells” value (β cell CaV channels [1]; voltage range 10-50 mV)?
**A.** significantly higher; also recorded: increased significantly; also recorded: significantly elevated; also recorded: significantly increased

**Q.** And the “whole-cell Ca2+ current density, ApoCIII group versus control group” value (β cell CaV channels [1]; voltage range from 10 to 30 mV)?
**A.** significantly higher

**Q.** What about the “relative abundance of CaV1.2 subunits, ApoCIII versus vehicle incubation” value (CaV1.2) of the same molecule?
**A.** no significant difference

**Q.** What about the “relative abundance of CaV1.3 subunits, ApoCIII versus vehicle incubation” value (CaV1.3) of the same molecule?
**A.** no significant difference

**Q.** What about the “whole-cell Ca2+ currents after ApoCIII incubation” value (β cell CaV channels [5]) of the same molecule?
**A.** significantly enhances

**Q.** For calphostin C, which “effect on ApoCIII-induced hyperactivation of β cell CaV channels (enhancement of whole-cell Ca2+ currents)” value (β cell CaV channels [1]) is on record?
**A.** does not affect

**Q.** What about the “whole-cell Ca2+ current density under basal conditions, inhibitor(s) versus vehicle” value (β cell CaV channels [1]) of the same molecule?
**A.** similar

**Q.** What about the “whole-cell Ca2+ current density, ApoCIII alone compared with ApoCIII plus inhibitor(s)” value (β cell CaV channels [1]; [7]) of the same molecule?
**A.** no difference

**Q.** And the “whole-cell Ca2+ current density, ApoCIII/CalpC versus vehicle-treated control cells” value (β cell CaV channels [1]; voltage range from 20 to 50 mV)?
**A.** increased significantly

**Q.** Which SRBI expression (SRBI [6]) does the source give for interferon alpha here?
**A.** inhibit
